Measured values published in patent US11304988B2, “Inhibiting tumor cell migration by inhibition of kinesin light chain 1, variant 1 (KLC1C)” (Northwestern University, priority 2018, dated 2022).
“Also recorded” adds a separate entry of the source.

Tests used:
A375M melanoma cells = assay: A375M transendothelial migration assay; format: cell-based, human; conditions: for lowest concentration with significant effects on tumor cell transmigration / melanoma / tumor cell transmigration with free radical scavengers and anti-oxidants (in words): A375M; for melanoma / tumor cell transmigration with free radical scavengers and anti-oxidants (in words): indicated concentrations, vs. Scr; for inhibition of melanoma cell TEM compared with Tat-KLC1c peptide: at 10 mM, vs optimal concentration of Tat-KLC1c peptide
Experimental: (§1) FIG. 16. […] Data are mean±SD of 6 replicates. *p<0.005 vs. Scr.
FIG. 19. […] A375M transendothelial migration assays were carried out in the presence of Tat-peptides or the indicated concentrations of Trolox or N-acetylcysteine. Data are mean±SD of ≥3 replicates for each condition. *p<0.01 for all inhibitors vs. Scr.

[1] = system: A375 human melanoma cells; assay: tumor cell TEM assay, A375 melanoma cells across EC (HUVEC) monolayers; format: cell-based; conditions: for melanoma cell transmigration across endothelial cell monolayers, prostaglandin receptor inhibitors: HUVEC pretreated 1 hour then washed, A375 cells, inhibitor used at 10× its IC50; for melanoma cell TEM in vitro (in words): human melanoma cells across human EC monolayer
Experimental: FIG. 7. Tat-KLC1c peptide blocks tumor cell TEM. A375 human melanoma cells were allowed to transmigrate for 2 hours across EC monolayers pre-incubated (then washed extensively) with Tat-KLC1c or Tat-Scr. The 50% block in TEM is representative of at least 6 independent experiments.
FIG. 10. Platelets modestly increase melanoma cell migration through an LBRC-dependent mechanism. The tumor cell TEM assay was carried out in the presence or absence of human platelets, which were added to the tumor cells at the time of peptide addition and immediately prior to addition to the endothelial cell monolayer. Transmigration proceeded for 2 hours.
FIG. 17. […] HUVEC monolayers were pretreated with 100 nM Tat peptides or the indicated doses of PF-04418948 (EP2 inhibitor) or AAT008 (EP4 antagonist) for 1 hour then washed exten-sively before adding A375 cells. Transmigration proceeded for 2 hours.
FIG. 18. Optimal concentrations of Tat-KLC1c peptide and EP4 antagonist are not additive. Transmigration assays as in FIG. 16 with 100 μM Tat-peptides, 100 nM AAT-008, or both. Mean±S.D. of 6 replicates for each condition. * p<0.0004 vs. Scr; NS vs each other.
(§2) Tumor cells that transmigrate using the LBRC do so without destroying the endothelial cell monolayer. […] The Tat-KLC1c peptide has no effect on the ability of tumor cells to move per se (FIG. 8), nor on tumor cell viability or growth (FIG. 9).

PMN = assay: croton oil acute dermatitis of ear skin, PMN transmigration; format: in vivo, mouse; conditions: i.v. to achieve 0.1 μM in blood, one hour before croton oil; ear skin examined six hours later
Experimental: FIG. 5. TAT-KLC1c blocks TEM in vivo. Mice received TAT-Scr or TAT-KLC1c i.v. at a concentration to achieve 0.1 μM in blood. One hour later, croton oil was applied to mouse ear skin to induce acute dermatitis. Six hours later mice were sacrificed and ear skin examined in whole mount by confocal microscopy. Representative images are shown. In mice receiving Tat-Scr, a mean of 70% of PMN exited the vessels, while in mice receiving Tat-KLC1c, transmigration was decreased to 12%.

[2] = system: A375 human melanoma cells; assay: Transwell filter migration of tumor cells toward serum-containing medium (A375); format: cell-based; conditions: 100 nM peptide, 12 hours, 8 μM pore size Transwell
Experimental: (§3) FIG. 8. […] 1×10^4 A375 human melanoma cells or 1×10^4 B16F10 melanoma cells were resuspended in serum-free medium and placed in the upper chamber of Transwell filters ([…]) and allowed to migrate in response to serum-containing medium in the bottom chamber in the presence of 100 nM Tat-Scr, Tat-KLC1c or no additives. The total number of tumor cells in the bottom well 12 hours later was enumerated. Data are mean±S.D. for four replicates of each sample.

B16F10 melanoma cells [3] = assay: Transwell filter migration of tumor cells toward serum-containing medium (B16F10); format: cell-based, mouse; conditions: 100 nM peptide, 12 hours, 8 μM pore size Transwell
Experimental: as §3

B16F10 melanoma cells [4] = assay: lung metastatic colony formation after tail vein injection of B16F10 cells; format: in vivo, mouse
Experimental: Age- and sex-matched C57Bl/6 mice were injected with Tat-Scr (Scr) or Tat-KLC1c (KLC1c) 1 hr before and 18 hr after injection of 10^6 B16F10 melanoma cells via tail vein. 14 days later lungs were inflated with formalin, and metastases counted. (A) Representative gross photos of lungs from mice that received Tat-Scr (top) and Tat-KLC1c (bottom). Arrows point to some of the metastases. (B) Graphical representation of results. Dots are values for individual mice. (TNTC)=too numerous to count. Lines show mean±S.D., p=0.00204 by ANOVA not including the TNTC data.
C57Bl/6 mice received KLC1c or scrambled peptide 1 hour prior to receiving carboxyfluorescein (CFSE)-labeled B16F10 melanoma cells via tail vein. They were sacrificed six hours later so that data would reflect the effects on extravasation per se rather than survival or growth (Ref. B10; herein incorporated by reference in its entirety). Immediately prior to sacrifice a fluorescent anti-PECAM antibody was injected i.v. to stain vasculature. […] In a separate experiment, age- and sex-matched C57Bl/6 mice syngeneic to the tumor were randomized to receive Tat-Scr or Tat-KLC1c parenterally at a concentration calculated to achieve 0.1 μM in vivo 1 h. before and 18 h. after receiving 1×10^6 syngeneic B16F10 melanoma cells in 100 μl via tail vein. […]

B16F10 melanoma cells [5] = assay: melanoma cell extravasation in lung in vivo after tail vein injection; design: species or system mouse; conditions: for visualized tumor cells that had transmigrated: C57Bl/6 mice, peptide 1 hour prior to CFSE-labeled B16F10 via tail vein, sacrificed six hours later
Experimental: FIG. 11. Visualizing melanoma cell extravasation in vivo. Single XY plane from confocal image of CFSE-labeled B16F10 cells in Tat-Scr treated mouse lung 6 hr. after i.v. injection of 10^6 tumor cells. Two tumor cells (arrows) have migrated out of vasculature while another one (arrowhead) remains inside the vessel.
FIG. 12. […] Quantification of block by Tat-KLC1c (Mean±S.D) * p<0.01.
C57Bl/6 mice received KLC1c or scrambled peptide 1 hour prior to receiving carboxyfluorescein (CFSE)-labeled B16F10 melanoma cells via tail vein. They were sacrificed six hours later so that data would reflect the effects on extravasation per se rather than survival or growth (Ref. B10; herein incorporated by reference in its entirety). Immediately prior to sacrifice a fluorescent anti-PECAM antibody was injected i.v. to stain vasculature. Lungs were inflated with 4% paraformaldehyde (PFA) and fixed overnight in PFA, then cryopreserved in sucrose. 100 μm thick frozen sections were cut and examined by spinning disc confocal microscopy with images taken every 1 μm of specimen depth. 30% of visualized tumor cells had transmigrated in the mice receiving scrambled peptide, whereas only ˜9% had transmigrated in mice receiving Tat-KLC1c peptide—a 70% reduction (FIGS. 11,12). […] In a separate experiment, age- and sex-matched C57Bl/6 mice syngeneic to the tumor were randomized to receive Tat-Scr or Tat-KLC1c parenterally at a concentration calculated to achieve 0.1 μM in vivo 1 h. before and 18 h. after receiving 1×10^6 syngeneic B16F10 melanoma cells in 100 μl via tail vein. Lung metastases were enumerated 14 days later under a dissecting microscope. The Tat-KLC1c group had over 90% fewer (FIG. 13, p=0.00204). […] Even though Tat-KLC1c blocks about ⅓ (in vitro) to ⅔ (in vivo) of melanoma extravasation events, the number of metastatic colonies that grow out are disproportionately lower.

B16F10 melanoma cells [6] = assay: growth of B16F10 melanoma cells in culture over two weeks; format: cell-based, mouse; conditions: 100 nM peptide, two-week period
Experimental: FIG. 9. […] Melanoma cells were plated at a density of 1×10^5/ml on 80 mm plates with 100 nM Tat-Scr or Tat-KLC1c. Cells were trypsinized and counted on the indicated days, diluted and 4×10^6 viable cells re-plated in fresh peptide. Total cells in the culture are shown.

[7] = system: Human umbilical vein endothelial cells; assay: in vitro transendothelial migration (TEM) of human monocytes across endothelial cell monolayers; format: cell-based; conditions: endothelial cells incubated 30 minutes with 0.01 μM or 0.1 μM peptide, washed, one hour with human monocytes; compared to untreated
Experimental: FIG. 3. Blocking Kinesin Light Chain 1c function via TAT-KLC1c peptide inhibits transmigration. Human umbilical vein endothelial cells. Endothelial cells were incubated for 30 minutes with either 0 μM (untreated), 0.01 μM, or 0.1 μM TAT-KLC1c peptide (or scrambled TAT-peptide) at 37° C., then washed prior to a one hour incubation with human monocytes. The cells were then washed, fixed, and the percentage of cells transmigrated (% TEM) was quantified. […] Data shown are mean±SEM for 3 experiments. * p<0.01 compared to untreated.
as §1, §2

neutrophils = assay: intravital confocal microscopy of neutrophil transmigration in IL-1β-inflamed cremaster muscle; format: in vivo; conditions: anesthetized mouse; for neutrophil extravasation (cumulative transmigration): postcapillary venules, response to IL-1β, after injection of peptide
Description: FIG. 4. TAT-KLC1c blocks TEM in vivo. In the inflamed cremaster muscle of an anesthetized mouse, fluorescent neutrophils were observed by intravital spinning disc confocal microscopy to transmigrate steadily from postcapillary venules in response to IL-1β.

Compound	lowest concentration with significant effects on tumor cell transmigration (A375M melanoma cells)	melanoma / tumor cell transmigration with free radical scavengers and anti-oxidants (in words) (A375M melanoma cells)	inhibition of melanoma cell TEM compared with Tat-KLC1c peptide (A375M melanoma cells)	mean PMN exited the vessels (transmigration) (PMN)	tumor cell migration, total number of tumor cells in the bottom well [2]	melanoma cell TEM in vitro (in words) [1]	tumor cell migration, total number of tumor cells in the bottom well (B16F10 melanoma cells [3])	visualized tumor cells that had transmigrated (B16F10 melanoma cells [5]; lung)	percentage of cells transmigrated (% TEM) [7]	neutrophil extravasation (cumulative transmigration) (neutrophils)	further results
CC(=O)N[C@@H](CS)C(=O)O [N-acetylcysteine]	100 µM	reduces tumor cell transmigration in a dose-dependent manner; also recorded: inhibit melanoma transmigration	as effectively as the optimal concentration of Tat-KLC1c peptide								
C[C@H](NC(=O)c1cc(Cl)cnc1Oc1cccc(F)c1)c1ccc(C(=O)O)cc1 [AAT-008, reference compound]											melanoma cell transmigration across endothelial cell monolayers, prostaglandin receptor inhibitors ([1]; 2 hours): block melanoma cell transmigration; melanoma cell transmigration across endothelial cell monolayers, prostaglandin receptor inhibitors ([1]; 2 hours, listed as AAT008): blocks melanoma transmigration; block to melanoma cell transmigration compared with Tat-KLC1c ([1]; vs Tat-KLC1c at its optimal concentration): as effective as using Tat-KLC1c at its optimal concentration
Tat-KLC1c: 11-amino acid basic region from HIV Tat protein, glycine tripeptide linker, C-terminal decapeptide of KLC1c (MRKMKLGLVN); SEQ ID NO: 8 (YGRKKRRQRRRGGGMRKMKLGLVN)				12%	no direct effect	significantly blocks	no direct effect	~9%	significantly decreased TEM	markedly inhibited	block in TEM ([1]; EC monolayers pre-incubated with peptide then washed, 2 hours, vs Tat-Scr, representative of at least 6 experiments): 50%; reduction of tumor cell TEM ([1]; FIG. 10 experiment, without platelets, 2 hours, vs. scr): 33%; additional TEM in the presence of platelets ([1]; human platelets added to tumor cells, 2 hours): blocked; also recorded: down to the same level; melanoma extravasation events blocked (in vitro) ([1]; in vitro): about ⅓; fewer lung metastases than Tat-Scr group (B16F10 melanoma cells [4]; 0.1 μM in vivo, 1 h before and 18 h after 1×10^6 B16F10 cells via tail vein, 14 days later): over 90%; metastatic colony formation (in words) (B16F10 melanoma cells [4]; C57Bl/6 mice, B16F10, 14 days): significantly blocked the establishment of metastatic colonies; also recorded: prevents metastatic colony formation; melanoma extravasation (in words) (B16F10 melanoma cells [5]; FIG. 12 quantification): blocks melanoma extravasation; reduction of transmigrated tumor cells (B16F10 melanoma cells [5]; Tat-KLC1c vs scrambled peptide, six hours, lung): 70%; melanoma extravasation events blocked (in vivo) (B16F10 melanoma cells [5]; in vivo): ⅔; tumor cell viability or growth (total cells in the culture) (B16F10 melanoma cells [6]): no effect; also recorded: does not affect growth; time after injection until cumulative transmigration began to plateau (neutrophils; IL-1β-inflamed cremaster): ≤ 10 min
Tat-Scr: negative control peptide contains the same ten amino acids in a random order (scrambled, Scr); SEQ ID NO: 9 (YGRKKRRQRRRGGGGKLNKMVMLR) [reference compound]				70%	no significant differences	no effect	no significant differences	30%	not	no effect	
Cc1c(C)c2c(c(C)c1O)CCC(C)(C(=O)O)O2 (stereo not shown) [Trolox, 6-hydroxy-2,5,7,8-tetramethylchroman-2-carboxylic acid]	100 µM	reduces tumor cell transmigration in a dose-dependent manner; also recorded: inhibit melanoma transmigration	as effectively as the optimal concentration of Tat-KLC1c peptide								
